Patent US6355799B1, “Substituted benzene compounds, process for their preparation, and herbicidal and defoliant compositions containing them” (ISK Americas Incorporated, priority 1997, dated 2002)

What was measured:
Type in all cases: in vivo
[1] = system: redroot pigweed (Amaranthus retroflexus, AMARE); test: Pre-emerge test, greenhouse herbicide activity screening; conditions: rated 14 days after application, 0 = no damage, 100 = complete death
In short: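 Compounds in acetone were track-sprayed at 187 l/ha, 15–1000 g ai/ha, onto sandy loam pots. Pre-emerge seeds were sown one day before spraying, with surface watering afterwards. Post-emerge plants were at the 2–3 leaf stage and sprayed with 0.25% v/v non-ionic surfactant. Injury was rated 0–100 at 14 days.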

[2] = system: field corn (Zea mays L., var. Dekalb 535, CORN); test: Pre-emerge test, crop safety; conditions: rated 14 days after application, 0 = no damage, 100 = complete death
In short: (§1)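 Rating: 0–100 visual injury, 14 DAA. Application: acetone, 187 l/ha, 15–1000 g ai/ha, flat-fan track sprayer with nozzle 40–45 cm above soil or canopy. Post-emerge runs used 0.25% v/v surfactant on 2–3 leaf plants.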

[3] = system: upland rice (Oryza sp., var. Tebonnet, RICE); test: Pre-emerge test, crop safety; conditions: rated 14 days after application, 0 = no damage, 100 = complete death
In short: as §1

[4] = system: velvetleaf (Abutilon theophrasti, ABUTH); test: Post-emerge test, greenhouse herbicide activity screening; conditions: post-emerge, 14 days after application, rating scale 0-100
In short: (§2)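 Compounds in acetone were track-sprayed at 15–1000 g ai/ha: pre-emergence onto soil sown the previous day, then top-watered to incorporate and later bottom-watered; post-emergence onto 2–3 leaf plants with 0.25% v/v surfactant, bottom-watered only. Ratings on a 0–100 phytotoxicity scale were taken at day 14.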

[5] = system: common ragweed (Ambrosia artemisizfolia L., AMBEL); test: as above; conditions: post-emerge, 14 days after application, rating scale 0-100
In short: as §2

[6] = system: sicklepod (Cassia obtusifolia, CASOB); test: as above; conditions: post-emerge, 14 days after application, rating scale 0-100
In short: as §2

[7] = system: barnyardgrass (Echinochloa crus-galli, ECHCG); test: as above; conditions: post-emerge, 14 days after application, rating scale 0-100
In short: as §2

[8] = system: lambsquarters (Chenopodium album, CHEAL); test: as above; conditions: post-emerge, 14 days after application, rating scale 0-100
In short: as §2

[9] = system: ivyleaf morningglory (Ipomoea hederacea, IPOHE); test: as above; conditions: post-emerge, 14 days after application, rating scale 0-100
In short: as §2

[10] = system: johnsongrass (Sorghum halepense, SORHA); test: as above; conditions: post-emerge, 14 days after application, rating scale 0-100
In short: as §2

[11] = system: redroot pigweed (Amaranthus retroflexus, AMARE); test: as above; conditions: post-emerge, 14 days after application, rating scale 0-100
In short: as §2

[12] = system: green foxtail (Setaria viridis, SETVI); test: as above; conditions: post-emerge, 14 days after application, rating scale 0-100
In short: as §2

[13] = system: large crabgrass (Digitaria sanguinalis, DIGSA); test: as above; conditions: post-emerge, 14 days after application, rating scale 0-100
In short: as §2

[14] = system: field corn (Zea mays L., var. Dekalb 535, CORN); test: Post-emerge test, crop safety; conditions: post-emerge, 14 days after application, rating scale 0-100
In short: (§3)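 Herbicidal damage is scored 0 (none) to 100 (complete plant death) two weeks after a simulated field spray. Rates span 15–1000 g ai/ha, delivered in acetone at 187 l/ha. For post-emergence treatments, plants have 2–3 leaves and the spray carries 0.25% v/v non-ionic surfactant.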

[15] = system: upland rice (Oryza sp., var. Tebonnet, RICE); test: Post-emerge test, crop safety; conditions: post-emerge, 14 days after application, rating scale 0-100
In short: as §3

[16] = system: velvetleaf (Abutilon theophrasti, ABUTH); test: Pre-emerge test, greenhouse herbicide activity screening; conditions: rated 14 days after application, 0 = no damage, 100 = complete death
In short: as §3

[17] = system: common ragweed (Ambrosia artemisizfolia L., AMBEL); test: as above; conditions: rated 14 days after application, 0 = no damage, 100 = complete death
In short: as §3

[18] = system: sicklepod (Cassia obtusifolia, CASOB); test: as above; conditions: rated 14 days after application, 0 = no damage, 100 = complete death
In short: as §3

[19] = system: barnyardgrass (Echinochloa crus-galli, ECHCG); test: as above; conditions: rated 14 days after application, 0 = no damage, 100 = complete death
In short: as §3

[20] = system: lambsquarters (Chenopodium album, CHEAL); test: as above; conditions: rated 14 days after application, 0 = no damage, 100 = complete death
In short: as §3

[21] = system: ivyleaf morningglory (Ipomoea hederacea, IPOHE); test: as above; conditions: rated 14 days after application, 0 = no damage, 100 = complete death
In short: as §3

[22] = system: johnsongrass (Sorghum halepense, SORHA); test: as above; conditions: rated 14 days after application, 0 = no damage, 100 = complete death
In short: as §3

[23] = system: green foxtail (Setaria viridis, SETVI); test: as above; conditions: rated 14 days after application, 0 = no damage, 100 = complete death
In short: as §3

[24] = system: large crabgrass (Digitaria sanguinalis, DIGSA); test: as above; conditions: rated 14 days after application, 0 = no damage, 100 = complete death
In short: as §3

SMILES: COc1c(Cl)cc(F)c(-n2c(=O)cc(C(F)(F)F)n(C)c2=O)c1NC(=O)c1ccc(Br)cc1 [2-61]
- Pre-emerge Herbicidal Activity, phytotoxicity rating (0-100), AMARE ([1]; 63 g ai/ha): 100
- Pre-emerge Herbicidal Activity, phytotoxicity rating (0-100), AMARE ([1]; 250 g ai/ha): 100
- Pre-emerge phytotoxicity rating (0-100), crop damage, CORN ([2]; 63 g ai/ha): 10
- Pre-emerge phytotoxicity rating (0-100), crop damage, CORN ([2]; 250 g ai/ha): 95
- Pre-emerge phytotoxicity rating (0-100), crop damage, RICE ([3]; 63 g ai/ha): 75
- Pre-emerge phytotoxicity rating (0-100), crop damage, RICE ([3]; 250 g ai/ha): 95
- phytotoxicity rating ABUTH ([4]; 63 g ai/ha): 100
- phytotoxicity rating ABUTH ([4]; 250 g ai/ha): 100
- phytotoxicity rating AMBEL ([5]; 63 g ai/ha): 100
- phytotoxicity rating AMBEL ([5]; 250 g ai/ha): 95
- phytotoxicity rating CASOB ([6]; 63 g ai/ha): 100
- phytotoxicity rating CASOB ([6]; 250 g ai/ha): 100
- phytotoxicity rating ECHCG ([7]; 63 g ai/ha): 40
- phytotoxicity rating ECHCG ([7]; 250 g ai/ha): 70
- phytotoxicity rating CHEAL ([8]; 63 g ai/ha): 100
- phytotoxicity rating CHEAL ([8]; 250 g ai/ha): 100
- phytotoxicity rating IPOHE ([9]; 63 g ai/ha): 100
- phytotoxicity rating IPOHE ([9]; 250 g ai/ha): 100
- phytotoxicity rating SORHA ([10]; 63 g ai/ha): 20
- phytotoxicity rating SORHA ([10]; 250 g ai/ha): 70
- phytotoxicity rating AMARE ([11]; 63 g ai/ha): 100
- phytotoxicity rating AMARE ([11]; 250 g ai/ha): 100
- phytotoxicity rating SETVI ([12]; 63 g ai/ha): 60
- phytotoxicity rating SETVI ([12]; 250 g ai/ha): 90
- phytotoxicity rating DIGSA ([13]; 63 g ai/ha): 20
- phytotoxicity rating DIGSA ([13]; 250 g ai/ha): 50
- phytotoxicity rating CORN ([14]; 63 g ai/ha): 35
- phytotoxicity rating CORN ([14]; 250 g ai/ha): 90
- phytotoxicity rating RICE ([15]; 63 g ai/ha): 60
- phytotoxicity rating RICE ([15]; 250 g ai/ha): 90
- Pre-emerge Herbicidal Activity, phytotoxicity rating (0-100), ABUTH ([16]; 63 g ai/ha): 100
- Pre-emerge Herbicidal Activity, phytotoxicity rating (0-100), ABUTH ([16]; 250 g ai/ha): 100
- Pre-emerge Herbicidal Activity, phytotoxicity rating (0-100), AMBEL ([17]; 63 g ai/ha): 80
- Pre-emerge Herbicidal Activity, phytotoxicity rating (0-100), AMBEL ([17]; 250 g ai/ha): 100
- Pre-emerge Herbicidal Activity, phytotoxicity rating (0-100), CASOB ([18]; 63 g ai/ha): 40
- Pre-emerge Herbicidal Activity, phytotoxicity rating (0-100), CASOB ([18]; 250 g ai/ha): 100
- Pre-emerge Herbicidal Activity, phytotoxicity rating (0-100), ECHCG ([19]; 63 g ai/ha): 85
- Pre-emerge Herbicidal Activity, phytotoxicity rating (0-100), ECHCG ([19]; 250 g ai/ha): 100
- Pre-emerge Herbicidal Activity, phytotoxicity rating (0-100), CHEAL ([20]; 63 g ai/ha): 100
- Pre-emerge Herbicidal Activity, phytotoxicity rating (0-100), CHEAL ([20]; 250 g ai/ha): 100
- Pre-emerge Herbicidal Activity, phytotoxicity rating (0-100), IPOHE ([21]; 63 g ai/ha): 90
- Pre-emerge Herbicidal Activity, phytotoxicity rating (0-100), IPOHE ([21]; 250 g ai/ha): 100
- Pre-emerge Herbicidal Activity, phytotoxicity rating (0-100), SORHA ([22]; 63 g ai/ha): 80
- Pre-emerge Herbicidal Activity, phytotoxicity rating (0-100), SORHA ([22]; 250 g ai/ha): 100
- Pre-emerge Herbicidal Activity, phytotoxicity rating (0-100), SETVI ([23]; 63 g ai/ha): 10
- Pre-emerge Herbicidal Activity, phytotoxicity rating (0-100), SETVI ([23]; 250 g ai/ha): 100
- Pre-emerge Herbicidal Activity, phytotoxicity rating (0-100), DIGSA ([24]; 63 g ai/ha): 90
- Pre-emerge Herbicidal Activity, phytotoxicity rating (0-100), DIGSA ([24]; 250 g ai/ha): 100
